Consider five molecules from publication PMC12340956, “Tranylcypromine-Based LSD1 Inhibitors as Useful Agents to Reduce Viability of” (ACS Infectious Diseases, 2025).

Structures are written as SMILES. Structures can show the parent of a compound that is named as a salt. Where two headings read alike, the source gives them in different places.

Data set [1] concerns the target T1, human LSD1-CoREST complex (Homo sapiens, UniProt O60341).
T1 construct: made in house
In words: ThermoFAD thermal stability assay. The data set is classed as binding. The note with it: LSD1-CoREST thermal stability. On the procedure: Compounds 14–22 were tested against the human LSD1-CoREST complex to determine their inhibitory activity. […] ThermoFAD assays were then performed to assess the impact of 14–22 on the thermal stability (ΔT m values, Table ) of the LSD1-CoREST complex. The most significant shifts in Tm values corresponded to the strongest binders. […] Compound 22 was not tested, considering its previous negative results.
Protein expression, thermal stability, and inhibition of human LSD1-CoREST were performed using established protocols. […] LSD1-CoREST (0.4 μM) was preincubated with the inhibitor at 25 °C for 10 min in the presence of 5% DMSO. The reaction was initiated by adding an equal volume of the substrate solution to the enzyme–inhibitor mixture, and resorufin fluorescence (excitation at 530–570 nm and emission at 580–590 nm) was detected with a Clariostar plate reader.

In data set [2] the target is T1, human LSD1-CoREST complex. In words: HRP-coupled LSD1 inhibition assay. The data set is classed as biochemical. The following applies: 10 min preincubation; for IC50: read-out: IC50 (hLSD1 direct inhibition). On the procedure: Protein expression, thermal stability, and inhibition of human LSD1-CoREST were performed using established protocols. […] The reaction was initiated by adding an equal volume of the substrate solution to the enzyme–inhibitor mixture, and resorufin fluorescence (excitation at 530–570 nm and emission at 580–590 nm) was detected with a Clariostar plate reader.

Data set [3] has as its system newly transformed schistosomula (NTS). In words: NTS viability phenotypic screening, 72 h. The note with it: for IC50: Schistosoma mansoni, read-out: IC50 (NTS viability).
Procedure: (§4) For NTS and adult worms, transparent flat-bottom 96- and 24-well plates were used, respectively (Sarstedt, Switzerland). For juvenile worms, 48-well plates were used with 3–6 worms per plate and RPMI medium with 5% FCS and 1% penicillin/streptomycin. Compounds were initially tested at 20 and 10 μM in triplicate on NTS and repeated once; each well contained 30–40 NTS. Phenotypic reference points such as motility, morphology, and granularity were used to score incubated parasites’ overall viability (scores from 0 to 3). […] Identified hits from the NTS screening were tested on adult worms. […] The experiment was conducted in duplicate and repeated; standard deviations were calculated from two wells. […] For all in vitro assays, negative controls (DMSO at the highest tested concentration) were included.
Data set [4] is described as follows: MTT cytotoxicity in RPE cells. The data set is classed as cell-based. The following applies: human, retinal pigment epithelial (RPE) cells. On the procedure:
(§1) The MTT method was used to evaluate cell viability after 72 h of treatment.
(§2) Human commercial lung diploid fibroblasts (MRC-5), and diploid retinal epithelium cells (RPE) were obtained from the American Type Culture Collection (ATCC) and kindly provided by Dr Francesca Degrassi (CNR IBPM) and maintained in minimal essential medium or DMEM-F12 medium supplemented with fetal calf serum, antibiotics, and nonessential amino acids. Cells were grown at 37 °C, in a humidified atmosphere, with 5% CO2. For experiments, cells were seeded in 200 μL of complete in each well of a 96-well microtiter plate. After 24 h, compounds were added at 5, 10, 25, and 50 μM for 72 h in sextuplicate. MTT was added (0.5 mg/mL), incubated for 4 h at 37 °C, and dissolved in 200 μL of isopropyl alcohol. Absorbance was measured at 570 nm (ELISA reader, DASIT), and cell viability was calculated as viability=(ODoftreatedcells/ODofcontrolcells)×100

Data set [5] has as its system adult worms. In words: Pairing and egg laying of adult worms. The data set is classed as cell-based, Schistosoma mansoni. The note with it: for eggs' number: 20 μM. Here is the method: Selected compounds 2, 15, 18, and 19 were tested on adult worms to evaluate their effects on pairing and egg laying.
Data set [6] concerns adult worms. In words: Adult worm viability phenotypic assay, 72 h. The following applies: Schistosoma mansoni, read-out: IC50 (adult worm viability).
Procedure: The life cycle is maintained at the Swiss TPH as described previously. Cercariae were obtained from infected snails by exposing them to a strong light source for 3–4 h in pond water.
as §4
A short description of data set [7]: MTT cytotoxicity in MRC-5 cells. The data set is classed as cell-based. The following applies: human, MRC-5 lung diploid fibroblast cells. On the procedure:
as §1, §2

The next data set has as its system NTS. As to the kind of experiment: Speed-of-action assay in NTS. The following applies: for Percentage of effect: NTS; for IC50: Schistosoma mansoni, read-out: IC50 (speed of action, NTS). The format is cell-based, Schistosoma mansoni. The source says:
(§3) To better characterize a selection of our LSD1i in vitro, we assessed the onset of their action, defined as the time required for an observable antischistosomal effect. […] For detailed percentages of activity at each time point, refer to the Supporting Information (Tables S2 and S3 in Supporting Information).

Data set [8] relates to S. mansoni juvenile forms. As to the kind of experiment: Speed-of-action assay in juvenile forms. The format is cell-based, Schistosoma mansoni. The note with it: for IC50: Schistosoma mansoni, read-out: IC50 (speed of action, juvenile forms); for Percentage of effect: juvenile forms.
Excerpt: as §3

[9] abbreviates: 5 μM, read-out: percentage of viability, 72 h.
Setting [10] is: 10 μM, read-out: percentage of viability, 72 h.
The mark [11] stands for this setting: 25 μM, read-out: percentage of viability, 72 h.
Where [12] appears, read: 50 μM, read-out: percentage of viability, 72 h.
Where [13] appears, read: read-out: IC50 (cell viability).

One may read the IC50 as the point on the concentration scale where inhibition reaches its midpoint. With `Cc1ccc(C(=O)Nc2ccc(C3CC3N)cc2)cc1.Cl` (centres unmarked) [Compound 14, N-(4-(2-Aminocyclopropyl)phenyl)-4-methylbenzamide Hydrochloride], in data set [1], the ΔTm result was “+8 °C”. Further, the IC50 is 0.15 ± 0.02 µM in [2] and over 20 µM in data set [3]. Further, the “Percentage of reduction of NTS viability, 72 h” value (“Percentage of reduction … 72 h” below) in [3] (10 μM) is given as 22.9 ± 2.1%; in [3] (20 μM), 41.7 ± 4.2%.

Usually viability stands for a read-out of living cells in per cent, often relative to untreated cells. On to `CCCc1ccc(C(=O)Nc2ccc(C3CC3N)cc2)cc1.Cl` (centres unmarked) [Compound 15, N-(4-(2-Aminocyclopropyl)phenyl)-4-propylbenzamide Hydrochloride], for which the values for the viability at 72 h, 5 µM in [4] (setting [9]) and in data set [7] (setting [9]) were 89 ± 3% and 81 ± 16%, respectively. The results for the viability at 72 h, 10 µM in data set [4] (setting [10]) and in data set [7] (setting [10]) were 104 ± 12% and 91 ± 20%, respectively. In addition, the viability at 72 h, 25 µM in [4] (setting [11]) was determined as 99 ± 6%; in [7] (setting [11]), 89 ± 17%. The viability at 72 h, 50 µM amounted to 106 ± 17% in data set [4] (setting [12]) and 92 ± 20% in data set [7] (setting [12]). For the same molecule, the IC50 at 72 h in data set [4] (setting [13]) and in [7] (setting [13]) was over 100 µM in each case. Moreover, the ΔTm entry in data set [1] is “+9.5 °C”. Besides, the “eggs' number” value is recorded as 0 in the data set on adult worms [5] (4 h); 0 in the data set with adult worms [5] (8 h); 0 with adult worms [5] (24 h); 0 in the data set with adult worms [5] (48 h); 8 in the data set with adult worms [5] (72 h). In the data set on adult worms [5] (adult worms), the “effect on worm pairing” value is on record as “no impact on worm pairing”. Further, the half-inhibitory concentration (IC50) in the data set with adult worms [6] was over 10 µM; in data set [2], 0.12 ± 0.02 µM; in [3] it was 1.72 µM; with NTS (4 h), over 20 µM; with NTS (24 h), 10 µM; in the data set on NTS (48 h) it was 9.9 µM. In addition, the half-maximal inhibitory concentration (IC50) with NTS (72 h) is 9.3 µM; in data set [8] (4 h), over 20 µM; in data set [8] (24 h), over 20 µM; in [8] (48 h), over 20 µM; in [8] (72 h), 4.3 µM. The results for the “Percentage of reduction … 72 h” value in data set [3] (1 μM), in data set [3] (10 μM) and in data set [3] (20 μM) were 30.2 ± 1.9%, 87.5 ± 4.2% and 100 ± 0.0%, respectively. Further, the Percentage of effect was found to be 21.15% with NTS (4 h, 10 μM); 38.46% with NTS (4 h, 20 μM); 50% with NTS (24 h, 10 μM); 57.14% in the data set on NTS (24 h, 20 μM); 51.02% in the data set with NTS (48 h, 10 μM); 91.84% in the data set on NTS (48 h, 20 μM). Further, the Percentage of effect with NTS (72 h, 10 μM) is given as 71.43%; in the data set with NTS (72 h, 20 μM), 100%; in data set [8] (4 h, 1 μM), 23.33%; in [8] (4 h, 10 μM) it was 33.33%; in [8] (4 h, 20 μM), 45.45%; in [8] (24 h, 1 μM) it was 24.14%. The Percentage of effect in [8] (24 h, 10 μM) is on record as 34.48%; in [8] (24 h, 20 μM) it was 48.08%; in data set [8] (48 h, 1 μM) it was 34.62%; in data set [8] (48 h, 10 μM) it was 42.31%; in [8] (48 h, 20 μM), 50%; in data set [8] (72 h, 1 μM), 40.96%. For the same molecule, the Percentage of effect in data set [8] (72 h, 10 μM) is 44.55%; in data set [8] (72 h, 20 μM), 70.83%.

For `C#Cc1cccc(C(=O)Nc2ccc(C3CC3N)cc2)c1.Cl` (centres unmarked) [Compound 16, N-(4-(2-Aminocyclopropyl)phenyl)-3-ethynylbenzamide Hydrochloride], the ΔTm result in data set [1] was “+10 °C”. The half-maximal inhibitory concentration (IC50) in the data set with adult worms [6] is over 20 µM; in [2] it was 0.07 ± 0.02 µM; in data set [3], over 10 µM. The “Percentage of reduction … 72 h” value in data set [3] (10 μM) is 31.2 ± 6.3%; in [3] (20 μM), 77.8 ± 2.1%.

In the case of `N#Cc1ccc(C(=O)Nc2ccc(C3CC3N)cc2)cc1` (centres unmarked) [Compound 17, N-(4-(2-Aminocyclopropyl)phenyl)-4-cyanobenzamide Hydrochloride], in [1], the ΔTm result is “+8.5 °C”. Further, the values for the IC50 in data set [2] and in [3] were 0.15 ± 0.02 µM and over 20 µM, respectively. Further, the entries for the “Percentage of reduction … 72 h” value in [3] (10 μM) and in data set [3] (20 μM) were 25.0 ± 0.0% and 31.2 ± 6.3%, respectively.

For the molecule `Cl.NC1CC1c1ccc(NC(=O)c2ccc(C#Cc3ccccc3)cc2)cc1` (centres unmarked) [Compound 20, N-(4-(2-Aminocyclopropyl)phenyl)-4-(phenylethynyl)benzamide Hydrochloride], in data set [1], the ΔTm result is “+8 °C”. For the same molecule, the results for the concentration for half-maximal inhibition (IC50) (in the data set with adult worms [6]; in data set [2]; in data set [3]) were over 20 µM, 4.02 ± 0.41 µM and over 10 µM, respectively. For the same molecule, the “IC50 (hLSD1 direct inhibition)” value in data set [2] is “single-digit μM inhibition”. Further, the results for the “Percentage of reduction … 72 h” value in [3] (10 μM) and in data set [3] (20 μM) were 29.2 ± 0.0% and 77.8 ± 2.1%, respectively.
